Counter-ions that a name gives are not always drawn. Like-named read-outs stand apart in the source and are kept apart here.
How the values were obtained:
[1] = biological target: T1, arginine vasopressin V1 receptor (Rattus norvegicus, UniProt P30560); assay: V1 receptor binding assay ([3H]-Arg-vasopressin, rat liver membrane)
T1 construct: A rat liver membrane sample was prepared; from tissue; host or cells: rat liver membranes
Description: (1) V1 receptor binding assay
A rat liver membrane sample was prepared in accordance with the method of Nakamura et al. (J. Biol. Chem., 258, 9283 (1983)), and [^3 H]-Arg-vasopressin (2 nM, specific activity=75.8 Ci/mmol), 70 μg of the membrane sample and each drug to be tested (10^-8 to 10^-4 M) were incubated at 30° C. for 30 minutes in 250 μl of 100 mM Tris-HCl buffer (pH=8.0) containing 5 mM of magnesium chloride, 1 mM of ethylenediaminetetraacetic acid (EDTA) and 0.1% of bovine serum albumin (BSA). Thereafter, the incubation solution was sucked off using a cell harvester and free ligand and excess buffer were removed by passing the reaction mixture through a glass filter (GF/B), thereby trapping receptor-bound labeled ligand on the glass filter. The glass filter was taken out, thoroughly dried and then mixed with a liquid scintillation cocktail, and the amount of the membrane-bound [^3 H]-vasopressin was measured using a liquid scintillation counter to calculate the inhibition ratio by the following formula. [formula] C1 : amount of [^3 H]-vasopressin bound to the membrane in the coexistence of known amount of each drug to be tested and [^3 H]-vasopressin
C0 : amount of [^3 H]-vasopressin bound to the membrane when the drug to be tested was not added
B1 : amount of [^3 H]-vasopressin bound to the membrane in the presence of excess vasopressin (10^-6 M)
[formula] [L]: concentration of radioactive ligand KD: dissociation constant calculated from Scatchard plot
Negative logarithm of the thus calculated Ki value was used as pKi value.

[2] = biological target: arginine vasopressin V2 receptor (Oryctolagus cuniculus, UniProt G1TA00); assay: V2 receptor binding assay ([3H]-Arg-vasopressin, rabbit renal medulla membrane); conditions: rabbit renal medulla membrane, [3H]-Arg-vasopressin 2 nM
Chain of arginine vasopressin V2 receptor (G1TA00 78-446): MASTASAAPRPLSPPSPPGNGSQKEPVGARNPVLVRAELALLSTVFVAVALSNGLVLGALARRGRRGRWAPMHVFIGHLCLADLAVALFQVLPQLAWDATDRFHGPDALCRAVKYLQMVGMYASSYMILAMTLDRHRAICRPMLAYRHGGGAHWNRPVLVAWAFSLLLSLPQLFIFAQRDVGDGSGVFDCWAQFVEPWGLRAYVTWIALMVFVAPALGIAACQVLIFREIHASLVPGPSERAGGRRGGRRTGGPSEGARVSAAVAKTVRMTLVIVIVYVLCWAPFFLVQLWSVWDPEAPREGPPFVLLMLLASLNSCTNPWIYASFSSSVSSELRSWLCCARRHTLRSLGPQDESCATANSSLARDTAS

[3] = rat liver membrane, [3H]-Arg-vasopressin 2 nM, 30° C., 30 minutes, pH 8.0, read-out: Binding activity on arginine vasopressin V1 receptor (pKi) (converted)

T1 sequence (P30560 whole entry): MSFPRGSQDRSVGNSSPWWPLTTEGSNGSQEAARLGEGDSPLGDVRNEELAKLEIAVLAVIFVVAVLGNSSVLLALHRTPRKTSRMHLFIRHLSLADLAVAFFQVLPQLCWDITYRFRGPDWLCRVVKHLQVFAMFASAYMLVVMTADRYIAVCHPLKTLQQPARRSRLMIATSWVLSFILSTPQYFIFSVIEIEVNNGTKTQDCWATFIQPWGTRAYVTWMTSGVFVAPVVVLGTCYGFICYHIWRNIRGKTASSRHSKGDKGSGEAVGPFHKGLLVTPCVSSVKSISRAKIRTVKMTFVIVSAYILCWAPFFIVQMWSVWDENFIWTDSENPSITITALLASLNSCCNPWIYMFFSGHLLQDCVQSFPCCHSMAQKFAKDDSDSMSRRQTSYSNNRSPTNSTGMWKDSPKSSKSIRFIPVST

| SMILES | Ki [1, 3] [nM] | Binding activity on arginine vasopressin V2 receptor (pKi) [2] | Ki [1] [nM] | V1 selectivity (in words) ([1]; V1 versus V2 receptor binding) | V1 receptor antagonism compared with OPC-21268 (in words) ([1]; versus OPC-21268) |
| --- | --- | --- | --- | --- | --- |
| CN(C)C1CCN(C(=O)/C=C2/c3ccccc3N(C(=O)c3ccc(NC(=O)c4cccc5ccccc45)cc3)CCC2(F)F)CC1 [Example 109, (Z)-N-[4'-[[4,4-difluoro-5-[[(4-dimethylaminopiperidino)carbonyl]methylene]-2,3,4,5-tetrahydro-1H-1-benzazepin-1-yl]carbonyl]phenylnaphthalene-1-carboxyamide hydrochloride] | 3.98 | 8.06 | – | – | – |
| CN(C)C1CCN(C(=O)/C=C2/c3ccccc3N(C(=O)c3ccc(NC(=O)c4cccn4C)cc3)CCC2(F)F)CC1 [Example 110, (Z)-N-[4-[[4,4-difluoro-5-[[(4-dimethylaminopiperidino)carbonyl]methylene]-2,3,4,5-tetrahydro-1H-1-benzazepin-1-yl]carbonyl]phenyl]-1-methylpyrrole-2-carboxyamide hydrochloride] | – | 7.75 | 0.398 | – | – |
| Cc1ccsc1C(=O)Nc1ccc(C(=O)N2CCC(F)(F)/C(=C\C(=O)N3CCC(N(C)C)CC3)c3ccccc32)cc1 [Example 111, (Z)-N-[4-[[4,4-difluoro-5-[[(4-dimethylaminopiperidino)carbonyl]methylene]-2,3,4,5-tetrahydro-1H-1-benzazepin-1-yl]carbonyl]phenyl]-3-methylthiophene-2-carboxyamide hydrochloride] | – | 7.79 | 0.562 | – | – |
| Cc1ccoc1C(=O)Nc1ccc(C(=O)N2CCC(F)(F)/C(=C\C(=O)N3CCC(N(C)C)CC3)c3ccccc32)cc1 [Example 113, (Z)-N-[4-[[4,4-difluoro-5-[[(4-dimethylaminopiperidino)carbonyl]methylene]-2,3,4,5-tetrahydro-1H-1-benzazepin-1-yl]carbonyl]phenyl]-3-methyl-2-furancarboxyamide hydrochloride] | – | 7.50 | 0.263 | excellent in V1 selectivity | markedly stronger V1 receptor antagonism than that of OPC-21268 |
| NC(=O)/C=C1/c2ccccc2N(C(=O)c2ccc(NC(=O)c3ccccc3-c3ccccc3)cc2)CCC1(F)F [Example 121, (Z)-4'-[(5-carbamoylmethylene-4,4-difluoro-2,3,4,5-tetrahydro-1H-1-benzazepin-1-yl]carbonyl]-2-phenylbenzanilide] | 0.295 | 8.59 | – | – | – |
| CNC(=O)/C=C1/c2ccccc2N(C(=O)c2ccc(NC(=O)c3ccccc3-c3ccccc3)cc2)CCC1(F)F [Example 122, (Z)-4'-[[4,4-difluoro-5-(N-methylcarbamoylmethylene)-2,3,4,5-tetrahydro-1H-1-benzazepin-1-yl]carbonyl]-2-phenylbenzanilide] | 0.355 | 8.94 | – | – | – |
| CCNC(=O)/C=C1/c2ccccc2N(C(=O)c2ccc(NC(=O)c3ccccc3-c3ccccc3)cc2)CCC1(F)F [Example 123, (Z)-4'-[[5-(N-ethylcarbamoylmethylene)-4,4-difluoro-2,3,4,5-tetrahydro-1H-1-benzazepin-1-yl]carbonyl]-2-phenylbenzanilide] | 0.2 | 9.16 | – | – | – |
| CC(C)NC(=O)/C=C1/c2ccccc2N(C(=O)c2ccc(NC(=O)c3ccccc3-c3ccccc3)cc2)CCC1(F)F [Example 125, (Z)-4'-[[4,4-difluoro-5-(N-isopropylcarbamoylmethylene)-2,3,4,5-tetrahydro-1H-1-benzazepin-1-yl]carbonyl]-2-phenylbenzanilide] | 0.282 | 8.08 | – | – | – |
| O=C(/C=C1/c2ccccc2N(C(=O)c2ccc(NC(=O)c3ccccc3-c3ccccc3)cc2)CCC1(F)F)NC1CC1 [Example 126] | 0.288 | 8.22 | – | – | – |

Source: patent US5710150A, “Benzazepine derivative, pharmaceutical composition thereof, and intermediate thereof” (Yamanouchi Pharmaceutical Co., Ltd., priority 1993, dated 1998)
